Measured values as given in article PMC8776995 (Frontiers in Chemistry, 2022).
“And” between values parts separate entries of the source, which are not always exact repeats. Identical values can stand only once. Like-named read-outs stand apart in the source and are kept apart here.

Key:
[1] = tested on: CCND1, CCNA2, CCNB1, CDK2, CDK6 RNA in PC-9 cells; test: qPCR assay for cell cycle-related gene analysis; assay type: cell-based, human; conditions: for RQ, CCNA / RQ, CCNB / RQ, CCND1 / RQ, CDK6 / RQ (CDK2): endogenous control b-Actin, reference sample NC; for CDK6 relative mRNA expression (fold of NC): qPCR, SYBR Green, normalised to beta-Actin, relative to NC = 1
Source text: To better understand the mechanisms underlying cell cycle arrest induced by e4 and e12 in NSCLC cells, we assessed the expression levels of a few genes involved in cell cycle regulation, including cyclin D1 (CCND1), cyclin A2 (CCNA2), cyclin B1 (CCNB1), cyclin-dependent kinase 2 (CDK2), and cyclin-dependent kinase 6 (CDK6) in PC-9 by qPCR. […] CCNA2 is known to bind and activate CDK2 and thus promotes the transition through G1/S and G2/M. CCNB1 and CCND1 are essential to mitosis and G1/S transition respectively. While G2/M arrest weas not detected, the changes in these gene expression profiles interpret the G1/S arrests in PC-9 cells treated with e4 and e12. PC-9 cells exposed to the compounds for various periods should be examined further.
Total RNA of cells was extracted and cDNA was synthesized. The primers for the target products were designed as in Table 3.

H1975 cells = test: CCK-8 antiproliferation assay, H1975; conditions: for Inhibitory efficacy: H1975 cells
H460 cells = test: Annexin V/PI flow cytometry for cell apoptosis, H460; assay type: cell-based, human; conditions: for Percentage of apoptosis, Average: average of three runs; for Q2+Q3 / Lymphocytes/Q2: FITC-A+ , PI-A+ Freq. of Parent / Lymphocytes/Q3: FITC-A+ , PI-A- Freq. of Parent / Percentage of apoptosis: single runs; for Q2+Q3: given as fraction; for Lymphocytes/Q2: FITC-A+ , PI-A+ Freq. of Parent / Lymphocytes/Q3: FITC-A+ , PI-A- Freq. of Parent / Percentage of apoptosis: time as in file name (24h, 48h or not given)
Experimental: To establish whether the antiproliferative efficacy is associated with apoptosis, PC-9 and H460 cells were treated with compound e4 or e12 of various concentrations (4, 8 and 12 μM) for 48 h, and then assessed with flow cytometry.
Cell-apoptosis analysis was carried out by flow cytometry using the Annexin V/PI apoptosis kit according to the manufacturer’s manual. Briefly, PC-9 or H460 (3 × 10^4–5 × 10^4/well) cells were seeded in 12-well plates for 24 h, and then treated with 0.1% DMSO (as control) or various concentrations of compound e4 or e12 for 48 h, respectively. Cells were harvested, washed with PBS, and then incubated with 100ul of 1X Annexin V binding buffer containing 1 μl PI and 1 μl FITC Annexin V for 15 min at RT in the dark. 200 µl of 1X binding buffer were added to each tube for flow cytometry analysis (BD LSRFortessa™ Flow Cytometer). The percentages of apoptotic cells were analyzed using FlowJo soft.

[2] = PC-9, 16 h, compared with DMSO control

`COCCOc1cc2ncnc(Nc3cccc(-c4cn(-c5ccc(C)cc5)nn4)c3)c2cc1OCCOC` [e12, [6,7-Bis-(2-methoxy-ethoxy)-quinazolin-4-yl]-[3-(1-p-tolyl-1H-[1,2,3]triazol-4-yl)-phenyl]-amine] was tested, and the “RNA level of CCNA2” value [1, 2] was “significantly decreased”, the “RNA level of CCNB1” value [1, 2] was “significantly decreased” and the “RQ, CCNA” value ([1]; qPCR SYBR Green, CCNA mRNA, 4uM) was 0.6447. For the same compound, the “RQ, CCNA” value ([1]; qPCR SYBR Green, CCNA mRNA, 8uM) was 0.5272, the “RQ, CCNA” value ([1]; qPCR SYBR Green, CCNA mRNA, 12uM) was 0.5472 and the “RQ, CCNB” value ([1]; qPCR SYBR Green, CCNB mRNA, 4uM) was 1.09. The “RQ, CCNB” value ([1]; qPCR SYBR Green, CCNB mRNA, 8uM) was 1.029, the “RQ, CCNB” value ([1]; qPCR SYBR Green, CCNB mRNA, 12uM) was 0.964 and the “RQ, CCND1” value ([1]; qPCR SYBR Green, CCND1 mRNA, 4uM) was 0.963. The “RQ, CCND1” value ([1]; qPCR SYBR Green, CCND1 mRNA, 8uM) was 0.9528, the “RQ, CCND1” value ([1]; qPCR SYBR Green, CCND1 mRNA, 12uM) was 0.9545 and the “RQ, CDK6” value ([1]; qPCR SYBR Green, CDK6 mRNA, 4uM) was 0.8604. For the same compound, the “RQ, CDK6” value ([1]; qPCR SYBR Green, CDK6 mRNA, 8uM) was 1.1509, the “RQ, CDK6” value ([1]; qPCR SYBR Green, CDK6 mRNA, 12uM) was 1.27 and the “CDK6 relative mRNA expression (fold of NC)” value ([1]; 4uM) was 0.9896. The “CDK6 relative mRNA expression (fold of NC)” value ([1]; 8uM) was 0.9153, the “CDK6 relative mRNA expression (fold of NC)” value ([1]; 12uM) was 0.9852 and the “RQ, CCNA” value ([1]; target CCNA, 4uM) was 0.5435. For the same compound, the “RQ, CCNA” value ([1]; target CCNA, 8uM) was 0.582, the “RQ, CCNA” value ([1]; target CCNA, 12uM) was 0.5914 and the “RQ, CCNB” value ([1]; target CCNB, 4uM) was 0.9828. For the same compound, the “RQ, CCNB” value ([1]; target CCNB, 8uM) was 0.8452, the “RQ, CCNB” value ([1]; target CCNB, 12uM) was 0.7825 and the “RQ, CCND1” value ([1]; target CCND1, 4uM) was 0.7886. For the same compound, the “RQ, CCND1” value ([1]; target CCND1, 8uM) was 0.7649, the “RQ, CCND1” value ([1]; target CCND1, 12uM) was 0.6173 and the “RQ (CDK2)” value ([1]; target CDK2, 4uM) was 0.9262. The “RQ (CDK2)” value ([1]; target CDK2, 8uM) was 0.848, the “RQ (CDK2)” value ([1]; target CDK2, 12uM) was 0.7751 and the “RQ, CDK6” value ([1]; target CDK6, 4uM) was 0.5928. The “RQ, CDK6” value ([1]; target CDK6, 8uM) was 0.8101, the “RQ, CDK6” value ([1]; target CDK6, 12uM) was 0.676 and the Inhibitory efficacy (H1975 cells; 1uM, given as fraction, Repeat 1-3) was 0.1624 and 0.1374. The Inhibitory efficacy (H1975 cells; 2uM, given as fraction, Repeat 1-3) was 0.2034 and 0.2177, the Inhibitory efficacy (H1975 cells; 4uM, given as fraction, Repeat 1-3) was 0.2052 and 0.2481 and the Inhibitory efficacy (H1975 cells; 8uM, given as fraction, Repeat 1-3) was 0.4158 and 0.4836. For the same compound, the Inhibitory efficacy (H1975 cells; 16uM, given as fraction, Repeat 1-3) was 0.8709 and 0.8763, the IC50 (H1975 cells; Homo sapiens, NCI-H1975, 48 h, read-out: IC50 (μM) H1975, CCK-8, 48 h, average ± SD of three independent experiments) was < 10 µM and the inhibition at 1 µM (H1975 cells; Homo sapiens, NCI-H1975, read-out: Inhibitory efficacy, H1975 cells, 1uM, given as fraction, Repeat 1-3) was 18.4%. It also gave an inhibition at 2 µM (H1975 cells; Homo sapiens, NCI-H1975, read-out: Inhibitory efficacy, H1975 cells, 2uM, given as fraction, Repeat 1-3) of 28.9%, an inhibition at 4 µM (H1975 cells; Homo sapiens, NCI-H1975, read-out: Inhibitory efficacy, H1975 cells, 4uM, given as fraction, Repeat 1-3) of 23.2% and an inhibition at 8 µM (H1975 cells; Homo sapiens, NCI-H1975, read-out: Inhibitory efficacy, H1975 cells, 8uM, given as fraction, Repeat 1-3) of 40.7%. The inhibition at 16 µM (H1975 cells; Homo sapiens, NCI-H1975, read-out: Inhibitory efficacy, H1975 cells, 16uM, given as fraction, Repeat 1-3) was 87.6%, the IC50 (H1975 cells; read-out: IC50 (μM) H1975, CCK-8, 48 h, average ± SD of three independent experiments) was 7.25 ± 0.45 µM and the “Percentage of apoptosis, Average” value (H460 cells; H460, 4uM) was 14.68%. The “Q2+Q3” value (H460 cells; H460, 4uM) was 0.149, the “Lymphocytes/Q2: FITC-A+ , PI-A+ Freq. of Parent” value (H460 cells; H460, 4uM) was 8.07% and 10.30% and 7.57% and the “Lymphocytes/Q3: FITC-A+ , PI-A- Freq. of Parent” value (from here on “Lymphocytes/Q3: FITC-A+ ”) (H460 cells; H460, 4uM) was 6.83% and 3.75% and 7.52%. For the same compound, the Percentage of apoptosis (H460 cells; H460, 4uM) was 14.9% and 14.05% and 15.09%, the “Percentage of apoptosis, Average” value (H460 cells; H460, 8uM) was 16.0567% and the “Q2+Q3” value (H460 cells; H460, 8uM) was 0.1436. The “Lymphocytes/Q2: FITC-A+ , PI-A+ Freq. of Parent” value (H460 cells; H460, 8uM) was 7.09% and 10.30% and 10.90%, the “Lymphocytes/Q3: FITC-A+ ” value (H460 cells; H460, 8uM) was 7.27% and 6.59% and 6.02% and the Percentage of apoptosis (H460 cells; H460, 8uM) was 14.36% and 16.89% and 16.92%. The “Percentage of apoptosis, Average” value (H460 cells; H460, 12uM) was 28.7833%, the “Q2+Q3” value (H460 cells; H460, 12uM) was 0.213 and the “Lymphocytes/Q3: FITC-A+ ” value (H460 cells; H460, 12uM) was 10.9% and 9.22% and 9.03%. The Percentage of apoptosis (H460 cells; H460, 12uM) was 21.3% and 31.62% and 33.43% and the “cell apoptosis (flow cytometry)” value (H460 cells; H460, 4, 8 and 12 μM, 48 h) was “significant cell apoptosis”.
